Measured values published in PubChem BioAssay AID2305 (GlaxoSmithKline (GSK), 2010).
“And” between values parts separate entries of the source, which are not always exact repeats. Equal entries are not always repeated.

tested on: P. falciparum 3D7 growth, pLDH absorbance; experiment: blood-stage malaria parasite growth potency – strain 3D7, dose response (AID 2305)

| Compound | IC50 |
| --- | --- |
| CCNc1cc(C(=O)N[C@@H](Cc2ccccc2)[C@H](O)CNC(C)(C)Cc2cccc(Cl)c2)cc(N2CCCCS2(=O)=O)c1 | 0.89 µM |
| Cc1cccc(CCNC(=O)c2cc(Br)cc(N3CCN(c4ccncc4)CC3)c2)c1 | 0.87 µM |
| Cc1c(S(=O)(=O)Nc2ccc3nccc(N4CCN[C@H](C)C4)c3c2)sc2ccc(Cl)cc12 | 0.84 µM |
| O=C(/C=C/c1ccc(Cl)c(Cl)c1)NCCCCCN1CCCC(CNS(=O)(=O)c2cccc(C(F)(F)F)c2)C1 (stereo unspecified) | 0.95 µM |
| CCCc1ccc(C2CCN(CCCCNC(=O)c3ccc(NC(=O)c4ccc(Cl)cc4)cc3)CC2)cc1 | 0.63 µM |
| Cc1ccc(/C=C/C(=O)NC2CCC(N3CCC(c4ccccc4C)CC3)CC2)cc1C (stereo unspecified) | 0.81 µM |
| CCNc1cc(C(=O)N[C@@H](Cc2ccccc2)[C@H](O)CNC(C)Cc2cccc(Cl)c2)cc(N2CCCCS2(=O)=O)c1 (stereo partly specified) | 0.5 µM |
| CN(C)c1ccc(-c2ccc(C(=O)NC3CCN(Cc4ccc5c(c4)OCCO5)CC3)s2)cc1 | 1.12 µM |
| CN(C)CCN1CCN(Cc2ccc(-c3cccc(-c4nc5ccccc5[nH]4)c3)cc2)CC1 | 0.2 µM |
| CCCCCCN1CCN(Cc2cccc(NC(=O)c3cc4ccccc4o3)c2)CC1 | 0.91 µM |
| COC[C@H]1CCCN1Cc1ccc(-c2ccc(-c3nc4ccccc4[nH]3)s2)cc1 | 1 µM |
| Cc1ccc(CN2CCN(CC(O)COc3ccc4c(c3)CCC4)CC2)cc1 (stereo unspecified) | 0.86 µM |
| C[C@@H]([C@@H](CCCc1ccc(Cl)cc1)C(=O)N[C@H](C(=O)Nc1cccnc1)C(C)(C)C)N(O)C=O | 0.72 µM |
| C=CCN(c1ccc(OC)cc1)S(=O)(=O)c1ccc(Cl)c(C(=O)Nc2cccc(C#N)c2)c1 | 0.58 µM |
| CCNC(=O)Nc1ccc(-c2cnc(N)c(-c3nc4ccc(OC)cc4[nH]3)c2)cc1 | 0.5 µM |
| Nc1cc(-c2ccc3c(N)nccc3c2)ccc1Cl | 1.54 µM |
| O=C(Nc1cc(C(F)(F)F)cc(C(F)(F)F)c1)NC1CCC(CN2CCC(c3c[nH]c4ccccc34)CC2)CC1 (stereo unspecified) | 0.81 µM and 0.46 µM |
| CCOc1ccc(C(=O)Nc2cc(Br)c3c(c2)CNCC3)cc1C(F)(F)F | 0.94 µM |
| Cc1ccc(-c2cncc(-c3cc(NC4CCN(Cc5ccccc5)CC4)nc(-c4ccccc4)n3)c2)cc1 | 0.72 µM |
| Cc1noc(C)c1-c1cccc(CNCc2cccc(-c3csc(-c4nc5ccccc5[nH]4)c3)c2)c1 | 0.26 µM |
| CCCCCCC(C)c1cc(O)c2c(c1)OC(C)(C)C=C2c1ccncc1 (stereo unspecified) | 0.73 µM |
| FC(F)(F)c1cccc(Nc2nc(-c3ccccc3)nc3ncccc23)c1 | 0.8 µM |
| COC(=O)c1sc(-c2ccc(Cl)cc2)cc1N(CCCN1CCC(N2CCCCC2)CC1)S(=O)(=O)c1ccc(C)cc1 | 0.74 µM |
| O=[N+]([O-])c1ccc(NC(=NCCOc2ccccc2)Nc2ccccc2Br)c(O)c1 | 1.05 µM |

| Compound | IC50 |
| --- | --- |
| O=S(=O)(Nc1cccc(F)c1CNCc1ccccn1)c1ccc(Cl)c(Cl)c1 | 0.89 µM |
| CCNc1cc(C(=O)N[C@@H](Cc2ccccc2)[C@H](O)CN[C@H](C)c2ccccc2)cc(N2CCCC2=O)c1 | 0.05 µM |
| CCN1CCC(N(Cc2ccc(-c3ccc(C(F)(F)F)cc3)o2)C(=O)Cn2c(CCc3cccc(F)c3F)nc(=O)c3ccccc32)CC1 | 1.14 µM |
| CC=CCON1C(N)=NC(N)=NC1(C)C | 0.03 µM |
| COc1ccc(CN2CCC2=O)c(OC)c1 | 0.12 µM |
| Cc1ncccc1C(=O)Nc1cccc(-c2cccc(-c3nc4c(C)cccc4[nH]3)c2)c1 | 0.96 µM |
| COc1ccc2c(NN=CC=Cc3ccccc3)ccnc2c1 | 0.77 µM |
| Cn1c(=O)c(-c2c(Cl)cccc2Cl)cc2cnc(Nc3ccc(N4CCOCC4)cc3)nc21 | 0.16 µM |
| CN1CCN(CC2(Nc3nccc(NCCc4cn(C)c5ccccc45)n3)CCCCC2)CC1 | 1.81 µM |
| COc1ccc(C=NNc2cc(C)nc3ccccc23)c(OC)c1 | 0.62 µM |
| O=C(NCc1ccc(Cl)c(Cl)c1)c1ccc(C2CCCN(Cc3ccc4nc[nH]c4c3)C2)cc1 (stereo unspecified) | 0.78 µM |
| CN1CCN(CCCN(Cc2csc(-c3ccc(CNCc4ccccc4)cc3)n2)S(=O)(=O)c2ccccc2Cl)CC1 | 0.88 µM |
| CCOc1ccc(NC(=O)c2cn3nc(-c4ccc(OCC)cc4)cc3nc2C2CCNCC2)cc1 | 0.51 µM |
| OC1CCCN(Cc2ccc(-c3cccc(-c4nc5ccc(F)cc5[nH]4)c3)cc2)C1 (stereo unspecified) | 0.87 µM |
| COc1ccc(Cc2cnc3nc(N)nc(N)c3c2C)cc1 | 0.03 µM |
| COc1ccc(-c2cc(C(=O)Nc3ccc4nc(-c5ccccc5)[nH]c4c3)[nH]n2)cc1 | 0.7 µM |
| CC(C)CC1(C(=O)OC(C)(C)C)CC(C(=O)OC(C)(C)C)C(c2cccs2)N1C(=O)c1ccc(C(C)(C)C)cc1 (stereo unspecified) | 0.14 µM |
| COc1cc2ccccc2c(CON2C(N)=NC(N)=NC2(C)C)c1OC | 0.05 µM |
| COCCOCCOCCn1ccc2c3c(N)nc(N)nc3ccc21 | 0.26 µM |
| COC(=O)Nc1cc(C(F)(F)F)ccc1N1CCCC(NS(=O)(=O)c2ccc(C(C)(C)C)cc2)C1 (stereo unspecified) | 0.38 µM |
| Clc1cccc(-c2nc(Nc3ccnc(-c4ccc(CN5CCOCC5)cc4)c3)c3ccccc3n2)c1 | 0.71 µM |
| CCN(CC)c1nc(Nc2cc(C)ccc2C)nc(Nc2ccccc2O)n1 | 0.64 µM |
| CNCCNCc1cccc(-c2ccc(-c3nc4ccccc4[nH]3)s2)c1 | 0.83 µM |
| COc1ccc2nccc([C@@H](O)CN3CCC(NCc4nc5c(F)cc(F)cc5[nH]4)CC3)c2c1 | 0.57 µM |

| Compound | IC50 |
| --- | --- |
| O=C(Cc1cnc[nH]1)Nc1cccc(-c2ccc(-c3nc4ccc(F)cc4[nH]3)s2)c1 | 0.66 µM |
| Cc1ccccc1C1CCN(C2CCC(NC(=O)C3=Cc4cc(Cl)ccc4OC3)CC2)CC1 (stereo unspecified) | 0.89 µM |
| CC[C@H]1CN2CC[C@H]1C[C@H]2[C@H](O)c1cc(Cl)nc2ccc(OC)cc12 | 0.58 µM |
| OC(CNC1CCCCCCC1)c1ccc(Cl)c(Cl)c1 (stereo unspecified) | 0.21 µM |
| CCC1CN2CCc3cc(OC)c(OC)cc3C2CC1CC1NCCc2c1[nH]c1ccc(O)cc21 (stereo unspecified) | 0.1 µM |
| CSc1nc2nc(C)c(Cc3cccc(C(F)(F)F)c3)c(C)n2n1 | 0.19 µM |
| O=C(Nc1ccc(Cn2ncc(N3CCCNCC3)c(Cl)c2=O)cc1)Nc1ccc(-c2ccccc2)cc1 | 0.82 µM and 0.8 µM |
| Cc1nnsc1C(=O)Nc1ccc(-c2cccc(-c3nc4c(C)cccc4[nH]3)c2)cc1 | 0.63 µM |
| NOCCCCOc1ccc(Cl)cc1 | 0.78 µM |
| CC1(CCCCN2CCC(Cc3ccccc3)CC2)C(=O)Nc2ccccc21 (stereo unspecified) | 0.86 µM |
| Cc1[nH]c(C)c(-c2ccc(CCc3ccc(F)cc3F)cc2)c(=O)c1Cl | 0.02 µM |
| COc1ccc(CCn2c(=N)c(C(=O)NCc3ccc(C)cc3)cc3c(=O)n4ccccc4nc32)cc1 | 1.13 µM |
| NCCNC(=O)c1ccc(-c2cnc3[nH]cc(-c4ccc(C(N)=O)cc4)c3c2)cc1 | 0.17 µM |
| O=C(Nc1cccc(-c2cccc(CN3CCCC3)c2)c1)c1ccc(Cl)cc1 | 0.68 µM |
| Cc1cc(NCCC(=O)NCc2cccc(F)c2)nc(Nc2ccccc2)n1 | 1.05 µM |
| O=C(Nc1ccc(Cn2ncc(N3CCCNCC3)c(Cl)c2=O)cc1)Nc1cccc(Oc2ccccc2)c1 | 0.99 µM |
| COc1ccc(C2C(C(=O)Nc3ccc(C)c(F)c3)c3cc(OC)c(OC)cc3C(=O)N2C)cc1 (stereo unspecified) | 0.96 µM |
| CCOc1cc(C)ccc1N1CCN(CCN2CCC(NC(=O)c3ccc(-c4ccc(C#N)cc4)cc3)CC2)CC1 | 1.43 µM |
| COc1ccc2c(NN=Cc3ccc(Cl)cc3)ccnc2c1 | 0.87 µM |
| COc1ccc(NC(=O)C2c3ccccc3C(=O)N(CC(C)C)C2c2cccs2)cc1OC (stereo unspecified) | 0.2 µM |
| Cc1noc(C)c1-c1cccc(CNCc2ccc(-c3cccc(-c4nc5ccc(C(F)(F)F)cc5[nH]4)c3)cc2)c1 | 0.56 µM |
| COc1ccc(CN2CCC(CNCC(c3ccccc3)c3ccccc3)CC2)cc1 | 0.23 µM |
| CCC[C@@H]([C@@H](CC(C)C)C(=O)N[C@@H](CCCCNC(=O)OCc1ccccc1)C(=O)Nc1ncccn1)N(O)C=O | 0.06 µM |
| O=C(Nc1cccc(C(F)(F)F)c1)c1cccc(S(=O)(=O)NCC2CCN(CC3CCCCC3)CC2)c1 | 1.47 µM |

| Compound | IC50 |
| --- | --- |
| COc1cccc(C2=CC(C)(C)Oc3cc(OCCN(C)C)ccc32)c1 | 0.79 µM |
| Cc1[nH]c2c(C)cc(NS(C)(=O)=O)cc2c1C1CCN(CC2CCN(C(=O)/C=C/c3ccc(Cl)c(Cl)c3)CC2)CC1 | 0.24 µM |
| COc1cc(C(=O)N2[C@@H](c3nccs3)[C@@H](C(=O)N(OC)C(C)c3ccccc3)C[C@@]2(CC(C)C)C(=O)OC(C)(C)C)ccc1C(C)(C)C (stereo partly specified) | 1.07 µM |
| C[C@@H]1CN(C(c2cccc(O)c2)c2cccc(C(=O)N(C)c3cccc(F)c3)c2)[C@@H](C)CN1C(c1cccc(O)c1)c1cccc(C(=O)N(C)c2cccc(F)c2)c1 (stereo partly specified) | 0.92 µM |
| CC(C)(C)NCc1cc(Nc2ccnc3cc(Cl)ccc23)ccc1F | 0.03 µM |
| CCOc1cc2ncnc(Nc3ccc(OCc4ccccc4F)c(Cl)c3)c2cc1OCC | 0.6 µM |
| COc1ccc(-c2cccc(NC(=O)c3cccc(C#N)c3)c2)cc1CN1CCCC1 | 0.75 µM |
| Cc1[nH]c2c(NCc3ccc(F)cc3)nccc2c1C | 1.36 µM |
| O=c1cc(NCCCNC2CCCc3c2cc(Cl)c(Cl)c3Cl)[nH]c2ccccc12 (stereo unspecified) | 0.28 µM |
| COc1ccc(CCN(C)CCOc2ccc(NC(=O)c3cc(SC)cc4c(=O)c5ccccc5[nH]c34)cc2)cc1OC | 1.4 µM |
| CC(C)(C)c1ccc2nc(-c3ccc(/C=C/C(=O)NCc4cccc(C(F)(F)F)c4)cc3)[nH]c2c1 | 0.99 µM |
| COCCOc1ccc(C(F)(F)F)cc1NC(=O)Cc1c(F)cccc1Cl | 1 µM |
| NC1=NCN(OCc2ccc(Cl)c(Cl)c2)C(N)=N1 | 0.19 µM |
| Nc1c(Cl)cc(C(O)CNCCCCCCOCCc2ccc(CO)s2)cc1Cl (stereo unspecified) | 1.05 µM |
| CN(C)CCN(C)Cc1ccc(-c2ccc3c(Nc4ccc(Oc5ccccn5)cc4)ccnc3c2)o1 | 0.42 µM |
| CC(C)(C)OC(=O)[C@H](CC(N)=O)NC(=O)c1ccc(-c2ccc(-c3nc4ccc(C(F)(F)F)cc4[nH]3)s2)cc1 | 0.27 µM |
| COc1ccc(-c2ccc(NC(=O)c3ccc(Cl)cc3)cc2)cc1CN1CCCN(C)CC1 | 0.65 µM |
| COc1cc(NC(=O)N2CCc3ccc(OCCC4CCCN4C)cc32)cc(C(F)(F)F)c1 (stereo unspecified) | 0.71 µM |
| O=C(Cc1n[nH]c(=O)c2ccccc12)Nc1cccc(C(=O)Nc2cccc(C(F)(F)F)c2)c1 | 0.17 µM |
| O=C(/C=C/c1cccc2ccccc12)NC1CCC(CN2CCC(c3c[nH]c4ccccc34)CC2)CC1 (stereo unspecified) | 0.74 µM and 0.67 µM |
| O=C(Nc1cc(F)c(F)c(-c2cccnc2)c1)N1CCc2cc(Cl)c(Cl)cc21 | 0.84 µM |
| Cc1nc2c(=O)sc3ccccc3c2n1Cc1ccccc1 | 0.88 µM |
| CNC(=O)c1cnc(Nc2ccc3[nH]c(=O)[nH]c3c2)nc1Nc1cccc(OC(C)C)c1 | 0.93 µM |
| CC(C)(c1ccccc1)c1ccc(O)c(CN2CCOCC2)c1 | 0.98 µM |
